Reference: the supplement of paper PMC12420376

Test system: OVCAR8
Assay: cancer cell viability relative to untreated control; higher = less cytotoxic
Conditions: 72 h
Protocol: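 KURAMOCHI or OVCAR8 cells were grown in monoculture or in co-culture with WI38 or patient-derived 030F fibroblasts and treated for 72 h with a dose matrix of carboplatin combined with birinapant or vorinostat (doses in nM). Cancer cell viability was measured by CK8/18 immunofluorescence imaging and expressed as % of untreated control, given as mean with SD.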

O=C(O)C1(C(=O)O)CCC1.[NH2-].[NH2-].[Pt+2] [Carboplatin] + O=C(CCCCCCC(=O)Nc1ccccc1)NO [Vorinostat]
cancer cell viability [%]
Conditions | partner drug concentration 0 nM | partner drug concentration 1 nM | partner drug concentration 10 nM | partner drug concentration 100 nM | partner drug concentration 1000 nM | partner drug concentration 10000 nM
carboplatin concentration 10 nM, co-cultured fibroblast: 030F | 95.9 | 98.7 | 97.7 | 61.9 | 16.7 | 1.47
carboplatin concentration 10 nM, co-cultured fibroblast: WI38 | 112 | 95.4 | 93.8 | 57.2 | 13 | -0.353
carboplatin concentration 10 nM, co-cultured fibroblast: none (monoculture) | 100 | 118 | 106 | 77.6 | 12.5 | -1.11
carboplatin concentration 100 nM, co-cultured fibroblast: 030F | 97.7 | 88.3 | 82.6 | 53.7 | 17.5 | 0.669
carboplatin concentration 100 nM, co-cultured fibroblast: WI38 | 103 | 98.1 | 88.4 | 53.3 | 11.5 | -0.268
carboplatin concentration 100 nM, co-cultured fibroblast: none (monoculture) | 101 | 108 | 109 | 58.4 | 20.6 | -0.748
carboplatin concentration 1000 nM, co-cultured fibroblast: 030F | 96.9 | 93 | 94.1 | 50.7 | 15.3 | 1.7
carboplatin concentration 1000 nM, co-cultured fibroblast: WI38 | 107 | 96.1 | 86 | 45.4 | 14.6 | -0.251
carboplatin concentration 1000 nM, co-cultured fibroblast: none (monoculture) | 101 | 111 | 102 | 63.4 | 17.2 | -1.67
carboplatin concentration 1e+05 nM, co-cultured fibroblast: 030F | 23.2 | 30.2 | 32.9 | 22.8 | 15.3 | 0.46
carboplatin concentration 1e+05 nM, co-cultured fibroblast: WI38 | 10.6 | 34.2 | 33.1 | 22.9 | 13.3 | -0.83
carboplatin concentration 1e+05 nM, co-cultured fibroblast: none (monoculture) | 23.1 | 57.5 | 51.6 | 24.6 | 17.1 | -3.4
carboplatin concentration 10000 nM, co-cultured fibroblast: 030F | 52.3 | 78.3 | 64.7 | 37.2 | 19.1 | 1.01
carboplatin concentration 10000 nM, co-cultured fibroblast: WI38 | 41.6 | 74.9 | 68.8 | 47.1 | 19 | -0.481
carboplatin concentration 10000 nM, co-cultured fibroblast: none (monoculture) | 56.5 | 89.7 | 89.7 | 65.2 | 26.8 | -0.768
